From patent US20020123056A1 (priority 2000, published 2002)

Experiments:
[1] = test system: SGK2; type: biochemical, human
[2] = molecular target: T1, SGK2 (Homo sapiens, UniProt Q9HBY8); type: biochemical
T1 sequence (Q9HBY8 whole entry, looked up): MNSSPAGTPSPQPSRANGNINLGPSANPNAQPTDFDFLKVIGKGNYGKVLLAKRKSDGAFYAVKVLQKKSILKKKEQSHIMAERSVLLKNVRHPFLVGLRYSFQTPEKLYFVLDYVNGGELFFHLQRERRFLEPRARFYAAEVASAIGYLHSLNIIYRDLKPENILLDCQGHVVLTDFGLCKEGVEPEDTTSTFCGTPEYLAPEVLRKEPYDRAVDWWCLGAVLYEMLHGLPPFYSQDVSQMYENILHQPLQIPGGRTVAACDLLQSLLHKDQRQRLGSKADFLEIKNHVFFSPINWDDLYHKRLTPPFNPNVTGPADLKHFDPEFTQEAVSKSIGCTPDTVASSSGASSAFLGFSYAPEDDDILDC

| Compound | effect on SGK2 kinase activity [1] | incorporation of 32P into peptide substrate [2] |
| --- | --- | --- |
| COC[C@@H]([C@H](O)[C@H](O)C(=O)NCC[C@H](C)c1nc(/C=C/C[C@@H]2O[C@]3(C[C@@H](O)[C@@H]2C)O[C@H]([C@H](C[C@H](O)[C@H](C)[C@H](O)[C@H](C)/C=C(C)/C(C)=C/C=C/C(C)=C\C#N)OC)[C@H](OP(=O)(O)O)C3(C)C)co1)N(C)C [Calyculin A] | stimulated SGK2 kinase activity | – |
| C=C1[C@@H](O)[C@@H]2O[C@]3(CC[C@H](/C=C/[C@@H](C)[C@@H]4CC(C)=C[C@@]5(O[C@H](C[C@@](C)(O)C(=O)O)CC[C@H]5O)O4)O3)CC[C@H]2O[C@@H]1[C@@H](O)C[C@H](C)[C@H]1O[C@@]2(CCCCO2)CC[C@H]1C [Okadaic Acid] | stimulated SGK2 kinase activity | – |
| CKRPRAASFAE [PKB-sub] | – | significant incorporation |
| KTFCGTPEYLAPEVRREPRILSEEEQEMFRDFDYI [PDK1 peptide] | – | no significant incorporation |
